Data published in patent US10323035B2, “Co-crystal of a CDK inhibitor and an MEK inhibitor and process of preparation thereof” (CRYSTAL PHARMATECH CO., LTD, priority 2015, dated 2019).

Assay: Pharmacokinetics in rats after oral administration
Type: in vivo
Conditions: male, SD, blood
Method: Investigations on the pharmacokinetic characteristics of MEK162 free base single compound (group A), equimolar physical mixture of MEK162 and LEE011 succinate (group B) and co-crystal Form I of MEK162-LEE011 (group C) in the rats were conducted. Male SD rats with standard weight were chosen as experimental objects, three rats in a group and were orally administrated. The dosage in group A was 5 mg·kg^−1 (calculated as free base), the dosages of two components in group B were both 5 mg·kg^−1 (calculated as free base), the dosage in group C was 10 mg·kg^−1 (calculated as co-crystal anhydrate form), and dosage of these two components was around 5 mg·kg^−1 (calculated as free base) as calculated by molecular weight.

Cn1cnc2c(F)c(Nc3ccc(Br)cc3F)c(C(=O)NOCCO)cc21 [MEK162, 5-[(4-bromo-2-fluorophenyl)amino]-4-fluoro-N-(2-hydroxyethoxy)-1-methyl-1H-benzimidazol-6-carboxamide]
Tmax (5 mg·kg^−1, rat, read-out: time to reach maximum concentration (Tmax)): 15 min
AUC(0-inf) (rat, about 5 mg·kg^−1 of each component as free base, read-out: AUC0-inf of MEK162): 11300 ± 895 ng·h/mL
Cmax (rat, about 5 mg·kg^−1 of each component as free base, read-out: maximum concentration of blood drug (Cmax) of MEK162): 3240 ± 576 ng/mL
